Measured values published in patent US12384753B2, “17-beta-hydroxysteroid dehydrogenase type 13 inhibitors and methods of use thereof” (Enanta Pharmaceuticals, Inc., priority 2021, dated 2025).

Molecular target: Recombinant human HSD17B13 (Homo sapiens (Human), UniProt Q7Z5P4)
Experiment: HSD17B13 rapid-fire mass spectrometry assay (RF/MS assay)
Assay type: biochemical
Conditions: inhibition of HSD17B13; LTB4 10 μM, NAD+ 0.5 mM, RT 3 h; IC50 ranges A-E
Method in brief: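 Product 12-oxo-LTB4 and substrate LTB4 quantified by RapidFire triple-quad MS in negative mode, giving percent conversion. Reaction: 80 nM recombinant hHSD17B13, 10 μM LTB4, 0.5 mM NAD+, compound up to 100 μM, pH 7.5, RT, 3 h. Variable-slope fit gave IC50; run in duplicate.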

Recombinant human HSD17B13, sequence (Q7Z5P4 20-300): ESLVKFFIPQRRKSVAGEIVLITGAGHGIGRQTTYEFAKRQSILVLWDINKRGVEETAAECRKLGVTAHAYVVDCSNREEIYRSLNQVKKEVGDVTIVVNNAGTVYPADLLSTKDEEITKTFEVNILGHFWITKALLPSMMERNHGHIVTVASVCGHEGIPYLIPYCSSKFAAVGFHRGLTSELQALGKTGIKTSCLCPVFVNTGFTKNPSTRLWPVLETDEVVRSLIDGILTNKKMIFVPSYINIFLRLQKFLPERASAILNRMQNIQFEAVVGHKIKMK

IC50 [µM]	SMILES
1 to 100	O=C(O)c1ccc(NS(=O)(=O)c2cnc(-c3ccc(F)cc3)s2)c(OC(F)F)c1 [Example 49]
0.1 to 0.5	COc1cc(C(=O)O)cnc1NS(=O)(=O)c1cnc(-c2ccc(F)cc2)s1 [Example 85]
1 to 100	COc1cc(C(=O)O)ccc1NS(=O)(=O)c1csc(N2Cc3ccccc3C2)n1 [Example 255]
0.1 to 0.5	COc1cc(C(=O)O)ccc1NS(=O)(=O)c1cnc(-c2ccc(C3CCC(C)(C)CC3)cc2)s1 [Example 453]
0.1 to 0.5	COc1cc(C(=O)O)ccc1NS(=O)(=O)N1Cc2ccc(-c3ccc(F)cc3)cc2C1 [Example 334]
0.1 to 0.5	COc1cc(C(=O)O)ccc1NS(=O)(=O)c1csc(-c2ccc(C(F)(F)F)cc2)n1 [Example 98]
0.1 to 0.5	COc1cc(C(=O)O)c(F)cc1NS(=O)(=O)c1csc(-c2ccc(-c3ccc4cnccc4c3)cc2)n1 [Example 654]
0.1 to 0.5	COc1cc(C(=O)O)ccc1NS(=O)(=O)c1csc(-c2ccc(N3CCCCC3)cc2)n1 [Example 284]
0.5 to 1	COc1cc(C(=O)O)ccc1NS(=O)(=O)c1csc(-c2ccc3cc(C4=CCC(C)(C)CC4)ccc3c2)n1 [Example 459, 4-((2-(6-(4,4-dimethylcyclohex-1-en-1-yl)naphthalen-2-yl)thiazole)-4-sulfonamido)-3-methoxybenzoic acid]
0.1 to 0.5	COc1cc(C(=O)O)ccc1NS(=O)(=O)N1Cc2ccc(-c3ccc(F)cc3)cc2C1 [Example 338]
0.5 to 1	COc1cc(C(=O)O)ccc1NS(=O)(=O)c1ccc(-c2ccc3c(c2)C(C)(C)CCC3(C)C)cc1F [Example 339]
1 to 100	O=C(O)c1ccc(NS(=O)(=O)c2cnc(-c3ccc(F)cc3)s2)c2ccccc12 [Example 87]
0.1 to 0.5	COc1cc(C(=O)O)c(F)cc1NS(=O)(=O)c1csc(-c2ccc(C3CC4CCC(C4)C3)cc2)n1 (stereo not drawn) [Example 534]
< 0.1	COc1cc(C(=O)O)c(F)cc1NS(=O)(=O)c1csc(-c2ccc([C@H]3CC[C@@H](C(C)C)CC3)c(F)c2F)n1 [Example 772]
< 0.1	CCC[C@H]1CC[C@H](c2ccc(-c3nc(S(=O)(=O)Nc4cc(F)c(C(=O)O)cc4OC)cs3)c(F)c2)CC1 [Example 755]
1 to 100	COc1cc(C(=O)O)c(NS(C)(=O)=O)cc1NS(=O)(=O)c1csc(-c2ccc(C3CCC(C)(C)CC3)cc2C(F)(F)F)n1 [Example 701]
< 0.1	COc1cc(C(=O)O)c(F)cc1NS(=O)(=O)c1csc(-c2ccc([C@H]3CC[C@@H](C(C)C)CC3)c(OC)c2F)n1 [Example 802]
1 to 100	O=C(O)c1ccc(NS(=O)(=O)c2cnc(-c3ccc(F)cc3)s2)c2ncccc12 [Example 82]
< 0.1	COc1cc(C(=O)O)ccc1NS(=O)(=O)c1cnc(-c2ccc(C3CCCCC3)cc2)s1 [Example 385]
0.1 to 0.5	COc1cc(C(=O)O)ccc1NS(=O)(=O)c1ccc(-c2ccc(F)cc2)cc1F [Example 333]
0.1 to 0.5	COc1cc(C(=O)O)c(F)cc1NS(=O)(=O)c1cnc(-c2ccc([C@H]3CC[C@H](C(C)(C)C)CC3)cc2)s1 [Example 721]
< 0.1	COc1cc(C(=O)O)cc(F)c1NS(=O)(=O)c1csc(-c2ccc(C3CCC(C)(C)CC3)cc2C(F)(F)F)n1 [Example 671]
0.1 to 0.5	COc1cc(C(=O)O)c(F)cc1NS(=O)(=O)c1csc(-c2ccc(C3=CCC(C)(C)CC3)c(OC(C)C)c2F)n1 [Example 564]
< 0.1	COc1cc(C(=O)O)c(F)cc1NS(=O)(=O)c1csc(-c2ccc(C3CCC(C)(C)CC3)cc2F)n1 [Example 511]

IC50 [µM]	SMILES
0.1 to 0.5	CC[C@H]1CC[C@H](c2ccc(-c3nc4cc(S(=O)(=O)Nc5cc(F)c(C(=O)O)cc5OC)ccc4s3)cc2)CC1 [Example 632]
1 to 100	COc1cc(C(=O)O)ccc1N(C)S(=O)(=O)c1cnc(-c2ccc(F)cc2)s1 [Example 105]
> 100	O=S(=O)(O)c1ccc(NS(=O)(=O)c2cnc(-c3ccc(F)cc3)s2)cc1 [Example 118]
0.1 to 0.5	COc1cc(C(=O)O)ccc1NS(=O)(=O)c1ccc(-c2ccc(F)cc2)c(OC)c1 [Example 324]
0.1 to 0.5	COc1cc(C(=O)O)c(F)cc1NS(=O)(=O)c1csc(-c2ccc(CCC(C)C)cc2)n1 [Example 625]
0.1 to 0.5	CC[C@H]1CC[C@H](c2ccc(-c3nc(S(=O)(=O)Nc4ccc(C(=O)O)cc4OC)co3)cc2)CC1 [Example 488]
1 to 100	COc1cc(C(=O)O)ccc1NS(=O)(=O)c1csc(-c2ccc(-c3ccccc3)nc2)n1 [Example 299]
< 0.1	COc1cc(C(=O)O)c(F)cc1NS(=O)(=O)c1coc(-c2ccc(C3CCC(C)(C)CC3)cc2)n1 [Example 496]
0.1 to 0.5	COc1cc(C(=O)O)ccc1NS(=O)(=O)c1cccc(-c2ccc([C@H]3CC[C@H](C(C)(C)C)CC3)cc2)c1F [Example 478, 4-((4′-((1r,4r)-4-(tert-butyl)cyclohexyl)-2-fluoro-[1,1′-biphenyl])-3-sulfonamido)-3-methoxybenzoic acid]
0.1 to 0.5	COc1cc(C(=O)O)ccc1NS(=O)(=O)c1csc(C#Cc2ccc(C)cc2)n1 [Example 176, 3-methoxy-4-((2-(p-tolylethynyl)thiazole)-4-sulfonamido)benzoic acid]
< 0.1	COc1cc(C(=O)O)c(F)cc1NS(=O)(=O)c1coc(-c2ccc([C@H]3CC[C@H](C(F)(F)F)CC3)cc2)n1 [Example 492]
0.5 to 1	COc1cc(C(=O)O)ccc1NS(=O)(=O)c1csc(-c2ccccc2O)n1 [Example 142]
0.1 to 0.5	COc1ccc(-c2nc(S(=O)(=O)Nc3ccc(C(=O)O)cc3OC)cs2)cc1 [Example 99]
1 to 100	CC[C@H]1CC[C@H](c2ccc(-c3nc4ccc(S(=O)(=O)Nc5cc(F)c(C(=O)O)cc5OC)cc4s3)cc2)CC1 [Example 658]
0.1 to 0.5	COc1cc(C(=O)O)ccc1NS(=O)(=O)c1cnc(-c2ccc(F)cc2)s1 [Example 161]
0.1 to 0.5	CCC1CCC(c2ccc(-c3nc(S(=O)(=O)Nc4cc(F)c(C(=O)O)cc4OC)cs3)c(C(F)(F)F)c2)CC1 (stereo not drawn) [Example 786]
0.1 to 0.5	COc1cc(C(=O)O)ccc1NS(=O)(=O)c1ccc(-c2ccc(C3(O)CCC(C)(C)CC3)cc2)s1 [Example 430, 4-((5-(4-(1-hydroxy-4,4-dimethylcyclohexyl)phenyl)thiophene)-2-sulfonamido)-3-methoxybenzoic acid]
0.1 to 0.5	COc1cc(C(=O)O)c(F)cc1NS(=O)(=O)c1csc(-c2cc(F)c(C3CCC(C)(C)CC3)c(F)c2)n1 [Example 517]
1 to 100	COc1cc(C(=O)O)ccc1NS(=O)(=O)c1ccc(-c2ccc(C3CCCCC3)cc2)cc1OC(F)(F)F [Example 325]
< 0.1	COc1cc(C(=O)O)c(F)cc1NS(=O)(=O)c1coc(-c2ccc(C3CCC(C)(C)CC3)cc2C(F)(F)F)n1 [Example 676]
< 0.1	COc1cc(C(=O)O)ccc1NS(=O)(=O)c1csc(-c2ccc([C@H]3CC[C@H](C(F)(F)F)CC3)cc2)n1 [Example 506]
1 to 100	O=C(O)c1ccc(NS(=O)(=O)c2cnc(-c3ccc(F)cc3)s2)nc1 [Example 33]
1 to 100	O=S(=O)(Nc1ccc(O)c(Cl)c1)c1cnc(-c2ccc(F)cc2)s1 [Example 114]
0.1 to 0.5	COc1cc(C(=O)O)c(F)cc1NS(=O)(=O)c1cnc(-c2ccc([C@H]3CC[C@@H](C)CC3)cc2)s1 [Example 626]
